This is an account of results in US9944603B2, “Compounds and methods for the treatment of cystic fibrosis” (Flatley Discovery Lab, LLC, priority 2013, dated 2018).

Molecules are shown by their SMILES.

In the experiment the target is T1, human F508del CFTR (Homo sapiens, UniProt P13569, DEL508-508).
T1 construct: expressed in transfected cells
Briefly: CFTR-YFP Assay, CFTR Corrector Protocol (YFP flux assay). The following applies: for Emax: normalized to the positive control, read-out: EMAX (% Efficacy, EMAX normalized to the positive control). It counts as cell-based.

T1 sequence (P13569 with tags, fused parts or gaps DEL508-508): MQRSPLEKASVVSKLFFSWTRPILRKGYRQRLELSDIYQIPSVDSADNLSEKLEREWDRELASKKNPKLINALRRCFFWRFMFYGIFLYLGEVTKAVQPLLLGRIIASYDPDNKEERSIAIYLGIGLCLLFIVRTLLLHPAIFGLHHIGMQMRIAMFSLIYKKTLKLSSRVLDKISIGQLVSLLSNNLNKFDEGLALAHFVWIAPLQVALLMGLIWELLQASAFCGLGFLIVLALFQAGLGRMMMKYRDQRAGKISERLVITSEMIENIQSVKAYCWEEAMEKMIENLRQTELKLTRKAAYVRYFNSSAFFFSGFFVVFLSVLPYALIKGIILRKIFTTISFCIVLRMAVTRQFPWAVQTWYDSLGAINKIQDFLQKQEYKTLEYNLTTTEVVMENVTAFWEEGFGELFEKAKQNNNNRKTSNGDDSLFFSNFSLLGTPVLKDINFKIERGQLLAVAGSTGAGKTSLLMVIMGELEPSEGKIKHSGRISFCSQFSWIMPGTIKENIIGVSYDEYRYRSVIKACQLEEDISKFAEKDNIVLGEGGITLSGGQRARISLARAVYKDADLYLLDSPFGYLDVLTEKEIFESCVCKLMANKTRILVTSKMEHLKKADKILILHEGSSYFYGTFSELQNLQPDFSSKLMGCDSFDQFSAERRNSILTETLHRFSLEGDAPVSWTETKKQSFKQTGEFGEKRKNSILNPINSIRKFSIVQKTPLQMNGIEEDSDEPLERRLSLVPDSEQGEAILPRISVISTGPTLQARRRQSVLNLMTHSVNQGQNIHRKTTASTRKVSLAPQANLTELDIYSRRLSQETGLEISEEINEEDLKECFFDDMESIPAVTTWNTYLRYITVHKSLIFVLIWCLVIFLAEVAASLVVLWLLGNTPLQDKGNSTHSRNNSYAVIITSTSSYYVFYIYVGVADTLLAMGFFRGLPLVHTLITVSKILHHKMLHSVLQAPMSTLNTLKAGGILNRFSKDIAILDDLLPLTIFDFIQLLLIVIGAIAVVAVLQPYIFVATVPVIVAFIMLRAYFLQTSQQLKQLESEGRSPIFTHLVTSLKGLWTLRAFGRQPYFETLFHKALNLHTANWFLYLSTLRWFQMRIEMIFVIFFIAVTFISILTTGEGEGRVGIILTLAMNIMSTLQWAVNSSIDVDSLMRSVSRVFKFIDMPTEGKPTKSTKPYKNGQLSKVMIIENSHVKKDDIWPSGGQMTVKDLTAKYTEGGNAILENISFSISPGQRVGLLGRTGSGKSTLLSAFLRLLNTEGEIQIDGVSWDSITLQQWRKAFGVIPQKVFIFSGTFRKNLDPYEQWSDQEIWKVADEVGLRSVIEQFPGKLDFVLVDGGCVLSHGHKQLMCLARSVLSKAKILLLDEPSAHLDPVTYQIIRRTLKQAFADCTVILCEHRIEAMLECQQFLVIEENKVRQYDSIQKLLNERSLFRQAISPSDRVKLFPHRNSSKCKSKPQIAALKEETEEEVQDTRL

In the case of `O=S(=O)(c1ccc2c(c1)OC(F)(F)O2)N1CCC(n2c(-c3ccc(F)cc3C(F)(F)F)nc3cccnc32)CC1` [Example 125], the EC50 is < 10 µM and the Emax lay within 30 to 80%.

`CC(C)c1ccc(S(=O)(=O)N2CCC(n3c(-c4ccccc4)nc4cccnc43)CC2)cc1` [Example 69]: the EC50 was < 10 µM and the Emax is 10 to 30%.

On to `COc1ccc2c(c1)nc(-c1ccncc1F)n2C1CCN(S(=O)(=O)c2ccc3c(c2)OC(F)(F)O3)CC1` [Example 150], for which the EC50 was in the range of 10 to 20 µM and the maximum response (Emax) was in the range of 30 to 80%.

For the molecule `Cc1ccc2nc(-c3ncccc3Cl)n(C3CCN(S(=O)(=O)c4ccc5c(c4)OC(F)(F)O5)CC3)c2n1` [Example 54], the EC50 is < 10 µM and the Emax lay in the range of 30 to 80%.

Consider `COc1ccc(S(=O)(=O)N2CCC(n3c(-c4ccc5c(c4)OCO5)nc4cccnc43)CC2)cc1Cl` [Example 57], for which the EC50 was < 10 µM and the Emax fell in the range of 30 to 80%.

As to `CCc1ccc(S(=O)(=O)N2CCC(N(c3ccc(C)cn3)S(=O)(=O)c3ccccc3Cl)CC2)cc1` [Example 227], the EC50 is < 10 µM and the Emax is 10 to 30%.

On to `O=S(=O)(c1ccc2c(c1)OCO2)N1CCC(n2c(-c3ccccc3C(F)(F)F)nc3cccnc32)CC1` [Example 100], for which the EC50 was < 10 µM and the Emax was in the range of 10 to 30%.

As for `CCc1ccc(S(=O)(=O)N2CCC(N(c3cccc(OC)c3)S(=O)(=O)c3ccccc3Cl)CC2)cc1` [Example 246], the EC50 is 10 to 20 µM and the Emax was 30 to 80%.

Regarding `CCc1ccc(S(=O)(=O)N2CCC(N(c3cnccn3)S(=O)(=O)c3ccccc3Cl)CC2)cc1` [Example 248], the EC50 is < 10 µM and the Emax is 30 to 80%.

Consider `CCc1ccc(S(=O)(=O)N2CCC(N(C(=O)c3ccccc3Cl)c3ccc(Br)cc3)CC2)cc1` [Example 214], for which the EC50 is < 10 µM and the Emax fell in the range of 10 to 30%.

As for `O=S(=O)(c1ccc2c(c1)OC(F)(F)O2)N1CCC(n2c(-c3ccccc3OC(F)(F)F)nc3cccnc32)CC1` [Example 124], the EC50 is < 10 µM and the maximal response (Emax) lay in the range of 30 to 80%.
